Laboratory results as given in patent US6699834B1, “Method for treating cancer” (University of Maryland Biotechnology Institute, priority 1997, dated 2004).

Key:
HIV-1 = conditions: for HIV in vitro Inhibition: inhibition of HIV-1 replication in vitro (HIV-1 strains and HIV-1 primary isolates)
Description: To prepare HIV infected cells for the in vitro assay of hCG preparations and β-hCG peptides and derivatives, primary PBMCs, macrophages, and CD4^+ T cells isolated from peripheral blood and the H9 human T cell line, were acutely or chronically infected with 8 different HIV-1 strains: 4 cell line adapted viruses, namely the macrophage tropic Ba-L strain (Gartner et al., 1986, Science 233:215-219) and the CD4^+ T cell tropic MN, RF, and IIIB strains (10^5 TCID50/ml) (Popovic et al., 1984, Science […]; Gallo et al.; 1984, Science 224:500-503); 2 isolates, Ju1083 and G3, from Nigerian AIDS patients passed once in a CD4^+ T cell line (Sub-T1); and 2 primary (“clinical”) isolates from AIDS patients from Trinidad which were never passed in any cell line and were used at a titer of 7.5×10^4TCID50/ml. In all experiments; HIV1 (10^5 TCID50/ml) was added to the cells(10^6 cells/ml) for a 2 hour incubation after which the virus infected cells were washed with 10 ml phosphate buffered saline (PBS) three times to eliminate extra cellular virus. The test inhibitor, i.e. the hCG or β-hCG peptide preparation was then added and the cells were incubated with the test inhibiter for 9 to 10 days with serial sampling. Cultures were assayed for p24 antigen on days 3 to 10.
Peptides of the α- and β-subunits (0.05 to 50 nmoles/ml), native α chain preparation, and various crude preparations of the native hCG heterodimer (0.01 to 1,000 IU) and the native β-hCG subunit (100 to 1,000 μg) were tested for effects on HIV-1 replication in acutely infected cells-by measuring change in viral antigen levels in response to the above noted preparations (FIGS. 4A-D and Table 3).
The fractions were then tested for anti-HIV, anti-KS and pro-hematopoietic activities in vitro. To assay for inhibition of HIV-1 replication in vitro, the HIV-1 […] viral strain was used to infect PBMCs and PM-1 cells (derived from the HUT-78 T-cell lymphoma cell line) at 10^3 TCID50/ml as described in detail herein.

[1] = tested on: HIV RNA and protein expression; assay: HIV RNA and protein expression in HIV-1 transgenic mice; format: in vivo; conditions: for inhibition of HIV RNA and protein expression: inhibition of HIV RNA and protein expression in HIV-1 transgenic mice; for HIV-1 gene / protein expression in transgenic mice (in words): pups dosed via mother's milk
Description: (§1) The HIV-1 transgenic mice used for this study contain 7.4 kb of foreign DNA, including 5.1 kb of the HIV-1 proviral genome deleted in the gag and pol genes and 2.3 kb of vector (Dickie et al., 1991, Virology 185:109-119). […] In addition, these mice develop severe hyperkeratotic skin lesions with marked expression of gp 120 and nef genes (Kopp et al., 1993, AIDS Res. Hum. Retroviruses 9:267-275; Vasli et al., 1994, AIDS Res. Hum. Retroviruses 10:1241-1250).
Heterozygous transgenic mothers were treated with the hCG preparation subcutaneously twice weekly. Pups received hCG via the mother's milk.
Gene expression was assayed in total RNA extracted from the skin of Tg26 mice with RNAzol. One microgram of RNA was reverse transcribed into cDNA using random hexamer primers and […] reverse transcriptase (Life Technologies, MD) in a final volume of 30 μl. One tenth of the cDNA reactions were used for PCR amplification of various HIV gene sequences (env, tat, rev, nef and vif). In addition, glyceraldehyde 3-phosphate dehydrogenase (GAPHD) mRNA was amplified for each sample for normalization. Following 25 cycles of amplification, 10% of the PCR product was resolved by electrophoresis through 2% agarose gels and processed for Southern hybridization using FITC-labeled oligonucleotide probes complimentary to internal sequences of the amplicons. Detection was performed by chemiluminescence (Amersham) and relative mRNA levels determined by densitometry after normalization with GAPDH mRNA levels.
(§2) Finally, certain fractions were tested for their ability to increase survival, promote weight gain and reduce HIV-1 gene expression in HIV-1 transgenic mice as described herein.

KS Y-1 and KS-SLK cells = assay: Kaposi's Sarcoma clonogenic assay in cultured cells; format: cell-based, human; conditions: for KS in vitro: inhibition of Kaposi's Sarcoma cell growth in vitro in cultured cells; for inhibition of KS cell growth in clonogenic assays (in words): KS Y-1 and KS SLK
Protocol: Briefly, the KS Y-1 cells were obtained from mononuclear cells isolated from pleural effusion of an AIDS patient with KS in the lungs. After the depletion of T lymphocytes, monocytes/macrophages and fibroblasts using monoclonal antibodies against CD2, CD3, CD4, CD8, CD10 and CD14 membrane antigens and baby rabbit complement, the cells were cultured in the absence of exogenous growth factors to select for transformed cells. […] Clonogenic assays were performed by seeding the KS Y-1 or KS-SLK cells in methylcellulose (0.8%, v/v), incubating the cells for 10 days in the presence or absence of the hCC, β-hCG or β-hCG peptide preparations and then counting the number of well-formed colonies of triplicate wells formed after seeding with 5×10^4 cells.
To assay for activity against Kaposi's sarcoma cell growth in vitro, the clonogenic assay described herein was used with the KS Y-1 and KS-SLK cultured Kaposi's Sarcoma cell lines,.

[2] = tested on: Kaposi's Sarcoma induced in mice; assay: Kaposi's Sarcoma tumors induced in mice by KS Y-1 cells; format: in vivo; conditions: for KS in vivo: inhibition of Kaposi's Sarcoma induced in mice; for effect on KS tumors in mice (in words): mouse, in vivo
Protocol: The effects of the peptides on KS tumor cells were also evaluated in vivo in the KS mouse model. To induce KS tumors in the mice, 1×10^6/ml KS Y-1 cells in 50 μl PBS or saline were injected subcutaneously into immunodeficient mice (beige-XID-BNX mice). […] Methods for detection of apoptosis (from tissue biopsies) were used, as described in Lunardi-Iskandar et al.(1995, Nature 375:64-68). Briefly, the samples were stained in situ for the presence of cells with DNA fragmentation. Tissue slides from formalin-fixed tumors were treated with terminal deoxynucleotide transferase for extension of DNA ends (hydroxyl 3′) and incorporation of digoxigenin-11-dUTP according to the manufacturer's instructions (Oncor, Gaithersburg, Md.). Anti-digoxigenin antibody conjugated with the enzyme peroxidase allowed detection of apoptotic cells, which stain brown, whereas viable cells stain blue.
Certain fractions were tested for activity in reducing Kaposi's Sarcoma lesions in the Kaposi's Sarcoma mouse model as described herein. In this assay, starting one week after injection of the KS Y-1 cells to induce Kaposi's sarcoma formation, the mice were injected subcutaneously with 100 IU hCG. […] After one week of the week of treatment with the hCG fractions, the KS lesions were examined for cell apoptosis and regression as described herein.
Certain fractions of the APL™ hCG and early pregnancy urine were assayed for their ability to elicit apoptosis in Kaposi's Sarcoma lesions induced by injection of KS Y-1 cells in mice (n=3 mice for each treatment). The mice were administered 100 μl subcutaneously of the particular fraction each day for one week.

[3] = tested on: hematopoietic progenitor cells; assay: Hematopoietic progenitor clonogenic assays (CFU-GEMM, BFU-e, CFU-GM); format: cell-based, human; conditions: for Pro-hematopoiesis in vitro Enhancement: relative increase of hematopoietic colony cell number, hCG preparations 200 IU/ml, subunits and peptides 100 μg/ml
Protocol: The effect of hCG preparations and peptides was assayed on hematopoietic progenitor cells in vitro: Hematopoietic progenitor cells (2×10^5 cell/ml) were isolated from normal bone marrow and cord blood and seeded in methylcellulose. […] The hCG preparations were administered at 200 IU/ml and the β- and α-subunits and peptides were administered at 100 μg/ml. The native commercial preparation of hCG (APL™, Wyeth Ayerst) was pre-tested for anti-HIV and anti-KS activities. Aggregates containing more than 50 cells after 10 days of culture were counted as colonies.

lung cancer cells = assay: Clonogenic assay, lung cancer cells; format: cell-based; conditions: compared to PBS alone
Protocol: The hCG preparations, fractions of the early pregnancy urine and hCG APL™ SUPERDEX™ 200 fractionations (described herein), and certain β-hCG peptides were tested on prostate, lung, breast, and kidney cancer cells in vitro, and on prostate tumors in nude mice. […] The preparations fractions and peptides were also assayed using a clonogenic assay in which cells were seeded in methylcellulose in the presence or absence of test substance and then colonies were counted after a certain period of time. Cells were also examined for apoptosis by confocal microscopy.

HIV-1 transgenic mice = assay: Survival, growth and weight of HIV-1 transgenic mouse pups; format: in vivo; conditions: HIV-1 transgenic pups
Protocol: as §1, §2
HIV-I transgenic pups administered hCG and hCG-related preparations for the first 5 days after birth through the mothers milk were monitored for survival at 10 days after birth.

| Substance | HIV in vitro Inhibition (HIV-1) | inhibition of HIV RNA and protein expression [1] | KS in vitro (KS Y-1 and KS-SLK cells) | KS in vivo [2] | Pro-hematopoiesis in vitro Enhancement [3] | inhibition of HIV-1 infection/replication in vitro (in words) (HIV-1) | inhibition of KS cell growth in clonogenic assays (in words) (KS Y-1 and KS-SLK cells) | effect on KS tumors in mice (in words) [2] | promotion of hematopoiesis (in words) [3] | colony formation (lung cancer cells) | HIV-1 gene / protein expression in transgenic mice (in words) [1] | weight gain / growth retardation and cachexia (HIV-1 transgenic mice) |
| --- | --- | --- | --- | --- | --- | --- | --- | --- | --- | --- | --- | --- |
| 13. 6-16: β-hCG amino acids 6-16 (RPRCRPINATL; UniProt P0DN86 26-36, looked up, fragment) | − (“−” represents less than 10% effect) | − (“−” represents less than 10% effect) | − (“−” represents less than 10% effect) | − (“−” represents less than 10% effect) | − (“−” represents less than 10% effect) | – | – | – | – | – | – | – |
| 6. 45-57::109-119: β-hCG 45-57 linked at the C-terminus to the N-terminus of 109-119 (SEQ ID NO:30) (LQGVLPALPQVVCTCDDPRFQDSS) | ++ (“++” represents greater than 40% effect) | ++ (“++” represents greater than 40% effect) | ++ (“++” represents greater than 40% effect) | ++ (“++” represents greater than 40% effect) | ++ (“++” represents greater than 40% effect) | inhibit HIV-1 replication in vitro | strongest anti-tumor effects | significant anti-KS activity | directly promoted | inhibited colony formation | – | – |
| 3. 45-57: β-hCG amino acids 45-57 (SEQ ID NO:6) (LQGVLPALPQVVC) | ++ (“++” represents greater than 40% effect) | ++ (“++” represents greater than 40% effect) | ++ (“++” represents greater than 40% effect) | ++ (“++” represents greater than 40% effect) | ++ (“++” represents greater than 40% effect) | inhibit HIV-1 replication in vitro | strongest anti-tumor effects | extensive cell death | directly promoted | inhibited colony formation | considerable inhibition | higher weight gain than untreated mice |
| 32. 48-56: β-hCG amino acids 48-56 (SEQ ID NO:35) (VLPALPQVV) | + (“+” represents greater than 15% effect) | + (“+” represents greater than 15% effect) | + (“+” represents greater than 15% effect) | + (“+” represents greater than 15% effect) | + (“+” represents greater than 15% effect) | inhibited HIV-1 replication | – | some anti-KS activity | pro-hematopoietic effect | – | elicited inhibition | – |
| 30. 37-55: β-hCG amino acids 37-55 as printed; probably 47-55 (YCPTMTRVLQGVLPALPQV; UniProt P0DN86 57-75, looked up, fragment) | + (“+” represents greater than 15% effect) | + (“+” represents greater than 15% effect) | + (“+” represents greater than 15% effect) | + (“+” represents greater than 15% effect) | + (“+” represents greater than 15% effect) | – | – | – | – | – | – | – |
